In one assay the test system is MRSA 43300. As to the kind of experiment: MIC of Debio 1452. As to conditions: Staphylococcus aureus. Format: cell-based.
For assay [1], the system named is ATCC 43300 MRSA strain. As to the kind of experiment: Induction of resistance studies, ex vivo bacterial exposure to 4×MIC (Example 1). It is filed as cell-based, Staphylococcus aureus. As to conditions: ex vivo exposure to 4×MIC; single and combination therapy; 24h or 72h biofilm. The procedure: Two experimental settings were used in this study to evaluate the treatment efficacies against early (24h) and/or mature (72h) MRSA catheter formed biofilms. Briefly, mice were anaesthetised by an IP injection of about 120 μl a mix of ketamine (50 mg/kg) and xylazine (10 mg/kg) (4 mL ketamine+2 mL xylazine+10 mL saline). Flank on the right side was shaved and then disinfected by 3 consecutive applications of betadine. A cutaneous and then subcutaneous (SC) incisions of 0.2 cm were made under sterile conditions and a 1 cm segment of polyurethane catheter (Ref. No. ES-04730 Arrow international) cut into 2 longitudinal fragments was inserted SC (into the incision and then pushed further under the skin, about 2 cm away from the incision). The inoculation was done simultaneously by placing 50 μl of the bacterial culture onto the catheter (10^6 CFU of ATCC 43300 MRSA strain). The incision was stitched up and disinfected. The day of the infection was referred to as Day0 (D0). To ensure that the study was conducted in sterile conditions from the start to the end of the experiment, non-infected mice (sentinel group) were included. […] In both 24 h and 72h biofilm settings, two groups of infected non-treated animals (Vehicle controls) were evaluated for bacterial counts: at baseline (24h or D1 [for 24-h biofilm] and 72h or D3 [for 72-h biofilm] post infection, i.e. time points corresponding to treatments initiations) and at the termination of treatment duration (D6 [for 24-h biofilm] and D8 [for 72-h biofilm] post infection). Post treatment CFUs were counted on D6 or D8 and results were expressed as Log10 CFU/g of catheter (Mean±SEM). The limit of detection was determined as being 1 Log10 CFU/g of catheter. Changes of CFU/g of catheter (Δ Log10) from the baseline (D1 or D3 for 24-h and 72-h biofilm, respectively) and cure rates (corresponding to the percentage of mice without catheter-associated bacteria within a given treatment group) were also calculated. In vivo induction of antibiotic-resistant bacteria was analysed for all tested antibiotics.

Assay [2] has as its system ATCC 43300 MRSA strain. As to the kind of experiment: In vivo murine model of catheter associated infection, 24 h and 72 h MRSA biofilms. Set-up: species or system Staphylococcus aureus. To be noted: for CR (%) cure rate: 5.5-day treatment, percentage of mice without catheter-associated bacteria. The procedure: Two experimental settings were used in this study to evaluate the treatment efficacies against early (24h) and/or mature (72h) MRSA catheter formed biofilms. Briefly, mice were anaesthetised by an IP injection of about 120 μl a mix of ketamine (50 mg/kg) and xylazine (10 mg/kg) (4 mL ketamine+2 mL xylazine+10 mL saline). Flank on the right side was shaved and then disinfected by 3 consecutive applications of betadine. A cutaneous and then subcutaneous (SC) incisions of 0.2 cm were made under sterile conditions and a 1 cm segment of polyurethane catheter (Ref. No. ES-04730 Arrow international) cut into 2 longitudinal fragments was inserted SC (into the incision and then pushed further under the skin, about 2 cm away from the incision). The inoculation was done simultaneously by placing 50 μl of the bacterial culture onto the catheter (10^6 CFU of ATCC 43300 MRSA strain). The incision was stitched up and disinfected. The day of the infection was referred to as Day0 (D0). To ensure that the study was conducted in sterile conditions from the start to the end of the experiment, non-infected mice (sentinel group) were included. Treatments started either on D1 or D3 post infection, corresponding to early (24h) or more mature (72h) catheter formed biofilms, respectively, and lasted for 5.5 days (D1-D6) or (D3-D8). In both 24 h and 72h biofilm settings, two groups of infected non-treated animals (Vehicle controls) were evaluated for bacterial counts: at baseline (24h or D1 [for 24-h biofilm] and 72h or D3 [for 72-h biofilm] post infection, i.e. time points corresponding to treatments initiations) and at the termination of treatment duration (D6 [for 24-h biofilm] and D8 [for 72-h biofilm] post infection). Post treatment CFUs were counted on D6 or D8 and results were expressed as Log10 CFU/g of catheter (Mean±SEM). The limit of detection was determined as being 1 Log10 CFU/g of catheter. Changes of CFU/g of catheter (Δ Log10) from the baseline (D1 or D3 for 24-h and 72-h biofilm, respectively) and cure rates (corresponding to the percentage of mice without catheter-associated bacteria within a given treatment group) were also calculated. In vivo induction of antibiotic-resistant bacteria was analysed for all tested antibiotics.
Antibiotics doses were selected according to the effective doses in animals, which approximated the therapeutic human equivalent doses (HED) (Table 1).
Mice received antibiotics on D1, D2, D3, D4, D5 and D6 (only one administration at D6) or D3, D4, D5, D6, D7 and D8 (only one administration at D8). All antibiotics were administered BID IP, except Debio 1450 BES and Vancomycin, which were respectively given PO and SC. Daptomycin was tested as a once daily regimen to avoid tolerability issues. The antibiotics daily dosing was performed with a 10-12 hours interval between the two administrations. For combination therapy, antibiotics were administered simultaneously every 10-12 hours (the time required between the injection of the first antibiotic and the injection of the second antibiotic was less than 30 seconds per mouse).
In each sub-study, animals were randomly assigned to the antibiotic therapies or vehicle controls groups. Dose volumes were calculated according to individual body weight of each animal.
After blood collection, animals were sacrificed by cervical dislocation following anaesthesia. Two fragments of catheter per mouse were collected and were used for bacterial enumeration after sonication. Each fragment of catheter was individually washed under aseptic conditions in an Eppendorf tube (3 successive washing steps with 300 μl sterile saline). After the last wash, the catheter was suspended in 1 mL sterile saline, put in an ultrasonic bath (Advantage Lab) for 3 minutes at room temperature before being vigorously vortexed in order to detach all adherent bacteria from the catheter. Several successive dilutions of this suspension (undiluted, 10-2, […]) were cultured onto Chapman agar plates for 48 h at 37° C. […]

Consider two compounds from US12414958B2, “Medicament and use thereof for treating bacterial infections involving biofilm” (Debiopharm International S.A., priority 2019, dated 2025).

Broadly, the MIC is the lowest concentration found to suppress growth.

Turning to `Cc1c(CN(C)C(=O)/C=C/c2cnc3c(c2)CCC(=O)N3)oc2ccccc12` [Debio 1452, (E)-N-methyl-N-((3-methylbenzofuran-2-yl)methyl)-3-(7-oxo-5,6,7,8-tetrahydro-1,8-naphthyridin-3-yl) acrylamide], the MIC in the assay with MRSA 43300 (determined in-house) came out at 0.0625 µg/mL; with MRSA 43300 (historical data from the Sponsor) it was 0.008 µg/mL. For the same compound, the “emergence of resistant mutants” value with ATCC 43300 MRSA strain [1] was “no emergence of resistant mutants”.

Take `CN[C@H](CC(C)C)C(=O)N[C@H]1C(=O)N[C@@H](CC(N)=O)C(=O)N[C@H]2C(=O)N[C@H]3C(=O)N[C@H](C(=O)N[C@H](C(=O)O)c4cc(O)cc(O)c4-c4cc3ccc4O)[C@H](O)c3ccc(c(Cl)c3)Oc3cc2cc(c3O[C@@H]2O[C@H](CO)[C@@H](O)[C@H](O)[C@H]2O[C@H]2C[C@](C)(N)[C@H](O)[C@H](C)O2)Oc2ccc(cc2Cl)[C@H]1O` [Vancomycin]: the “Log10 CFU/g of catheter (D 6) Mean ± SEM” value in the assay on ATCC 43300 MRSA strain [2] (Biofilm (24 h), 5.5-day treatment (D1-D6), BALB/c mice, doses as in Table 2) is reported as 5.08 ± 0.105 Log10 CFU/g of catheter. The “ΔLog10 CFU/g of catheter from (D 1) Mean ± SEM” value with ATCC 43300 MRSA strain [2] (Biofilm (24 h), 5.5-day treatment (D1-D6), change from baseline D 1, BALB/c mice) is listed as −1.59 ± 0.105 Log10 CFU/g of catheter. Further, the “CR (%) cure rate” value in the assay on ATCC 43300 MRSA strain [2] (Biofilm (24 h)) and in the assay with ATCC 43300 MRSA strain [2] (Biofilm (72 h)) was 0% in each case. In addition, the “Log10 CFU/g of catheter (D 8) Mean ± SEM” value with ATCC 43300 MRSA strain [2] (Biofilm (72 h), 5.5-day treatment (D3-D8), BALB/c mice, doses as in Table 2) was 4.84 ± 0.077 Log10 CFU/g of catheter. Moreover, in the assay on ATCC 43300 MRSA strain [2] (Biofilm (72 h), 5.5-day treatment (D3-D8), change from baseline D 3, BALB/c mice), the “ΔLog10 CFU/g of catheter from (D 3) Mean ± SEM” value is listed as −1.94 ± 0.077 Log10 CFU/g of catheter. In the assay on ATCC 43300 MRSA strain [1], the “emergence of resistant mutants” value is recorded as “no emergence of resistant mutants”.
